# Results taken from ChEMBL document CHEMBL1201862, “PubChem BioAssay data set” (2004).
# Calls of active or inactive are those of the source.
# Experiments:
# [1] = molecular target: T1, Cyclin-dependent kinase 2 (Homo sapiens, UniProt P24941); assay: CDK2 kinase inhibitors, off-target check, dose response, selectivity assay for Dyrk1A inhibitor project, biochemical, cherry-picked samples (AID 602127)
# [2] = molecular target: Dual specificity protein kinase CLK1 (Homo sapiens, UniProt P49759); assay: CLK1 kinase inhibitors, off-target check, dose response, selectivity assay for Dyrk1A inhibitor project, biochemical, cherry-picked samples (AID 588811)
# [3] = Vero cell cytotoxicity, cytotoxicity control for M. tuberculosis inhibitor project, purified and synthesized samples, set 3 (AID 504684); type: functional
# [4] = A Cell Based Secondary Assay to Explore Cytotoxicity in HepG2 Cells of Compounds that Modulate Mycobacterium tuberculosis in Media Containing Glycerol versus Media without Glycerol (2).; type: functional
# [5] = molecular target: T2, High affinity choline transporter 1 (Homo sapiens, UniProt Q9GZV3); assay: CHT activators, dose response, cell-based, 10-point CRC, membrane potential dye (AID 602376); type: functional
# T2 sequence (Q9GZV3 whole entry): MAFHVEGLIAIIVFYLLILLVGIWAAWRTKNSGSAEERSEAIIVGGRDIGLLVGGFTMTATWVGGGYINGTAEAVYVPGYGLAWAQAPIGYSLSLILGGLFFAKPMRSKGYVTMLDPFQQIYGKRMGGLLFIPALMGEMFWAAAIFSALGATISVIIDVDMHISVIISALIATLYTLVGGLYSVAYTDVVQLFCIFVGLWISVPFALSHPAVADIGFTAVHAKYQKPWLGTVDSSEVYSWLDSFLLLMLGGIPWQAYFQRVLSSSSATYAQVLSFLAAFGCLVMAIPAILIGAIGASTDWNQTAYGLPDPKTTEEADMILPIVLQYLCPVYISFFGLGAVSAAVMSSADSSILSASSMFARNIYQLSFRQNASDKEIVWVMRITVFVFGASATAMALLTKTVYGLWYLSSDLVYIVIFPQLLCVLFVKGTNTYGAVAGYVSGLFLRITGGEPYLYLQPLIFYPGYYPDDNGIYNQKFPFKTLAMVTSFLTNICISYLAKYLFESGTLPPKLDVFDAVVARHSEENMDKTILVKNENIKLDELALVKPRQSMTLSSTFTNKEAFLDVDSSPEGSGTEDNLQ
# [6] = molecular target: Sphingosine 1-phosphate receptor 2 (Homo sapiens, UniProt O95136); assay: S1P2 receptor agonists, human, late-stage follow-up, counter-screen for S1P4 agonist project, cell-based, fluorescence, set 2 (AID 504873); type: functional
# Sequence of Sphingosine 1-phosphate receptor 2 (O95136 whole entry): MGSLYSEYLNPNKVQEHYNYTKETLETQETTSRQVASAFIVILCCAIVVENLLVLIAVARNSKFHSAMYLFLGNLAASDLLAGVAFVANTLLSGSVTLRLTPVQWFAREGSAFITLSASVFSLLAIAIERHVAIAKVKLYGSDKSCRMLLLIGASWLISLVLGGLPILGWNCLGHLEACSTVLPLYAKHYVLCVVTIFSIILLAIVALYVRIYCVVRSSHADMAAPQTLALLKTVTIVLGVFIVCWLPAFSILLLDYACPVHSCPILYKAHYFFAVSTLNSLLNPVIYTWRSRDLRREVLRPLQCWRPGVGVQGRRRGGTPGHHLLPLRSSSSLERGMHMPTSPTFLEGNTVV
# [7] = molecular target: Sphingosine 1-phosphate receptor 1 (Homo sapiens, UniProt P21453); assay: Late-stage fluorescence-based dose-response cell-based counterscreen assay to identify agonists of the Sphingosine 1-Phosphate Receptor 4 (S1P4): Sphingosine 1-Phosphate Receptor 1 (S1P1) agonist assay Set 2.; type: functional
# Sequence of Sphingosine 1-phosphate receptor 1 (P21453 whole entry): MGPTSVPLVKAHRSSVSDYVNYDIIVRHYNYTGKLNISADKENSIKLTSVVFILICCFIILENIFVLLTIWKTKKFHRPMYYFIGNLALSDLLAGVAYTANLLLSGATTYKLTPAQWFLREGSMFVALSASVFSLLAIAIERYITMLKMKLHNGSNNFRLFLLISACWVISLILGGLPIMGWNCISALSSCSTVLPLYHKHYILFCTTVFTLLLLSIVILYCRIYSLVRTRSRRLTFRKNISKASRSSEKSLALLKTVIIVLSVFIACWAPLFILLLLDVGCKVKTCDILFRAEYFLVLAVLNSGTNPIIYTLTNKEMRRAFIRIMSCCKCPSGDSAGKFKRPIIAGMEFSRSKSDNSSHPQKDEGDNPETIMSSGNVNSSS
# [8] = molecular target: Sphingosine 1-phosphate receptor 3 (Homo sapiens, UniProt Q99500); assay: Late-stage fluorescence-based dose-response cell-based counterscreen assay to identify agonists of the Sphingosine 1-Phosphate Receptor 4 (S1P4): Sphingosine 1-Phosphate Receptor 3 (S1P3) agonist assay Set 2.; type: functional
# Sequence of Sphingosine 1-phosphate receptor 3 (Q99500 whole entry): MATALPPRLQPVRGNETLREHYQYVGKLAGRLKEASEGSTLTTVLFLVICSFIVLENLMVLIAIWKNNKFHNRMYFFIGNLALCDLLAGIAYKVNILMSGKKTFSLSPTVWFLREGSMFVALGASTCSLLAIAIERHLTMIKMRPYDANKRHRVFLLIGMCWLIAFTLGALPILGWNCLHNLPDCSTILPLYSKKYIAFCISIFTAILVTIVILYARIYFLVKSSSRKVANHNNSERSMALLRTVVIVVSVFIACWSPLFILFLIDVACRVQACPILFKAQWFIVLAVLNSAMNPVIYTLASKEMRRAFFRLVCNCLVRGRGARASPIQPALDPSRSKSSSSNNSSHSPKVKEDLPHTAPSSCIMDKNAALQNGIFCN
# [9] = molecular target: Sphingosine 1-phosphate receptor 5 (Homo sapiens, UniProt Q9H228); assay: S1P5 receptor agonists, human, late-stage follow-up, counter-screen for S1P4 agonist project, cell-based, fluorescence, set 2 (AID 504867); type: functional
# [10] = molecular target: Cyclin-dependent kinase 8 (Homo sapiens, UniProt P49336); assay: Navigating the Kinome. Panel member name: CDK8; type: functional
# [11] = molecular target: G protein-coupled receptor kinase 5 (Homo sapiens, UniProt P34947); assay: Navigating the Kinome. Panel member name: GPRK5; type: functional
# Candida albicans [12] = assay: growth inhibition of resistant C. albicans, dose response, CaCi-8, fluconazole, Alamar Blue, dry powder (AID 488807); type: functional, organism-based
# NIH3T3 = assay: cytotoxicity in NIH-3T3 fibroblasts, dose response, cytotoxicity control for antifungal drug resistance project, cell-based, Alamar Blue, fluconazole, dry powder (AID 488809); type: functional; settings: Mus musculus
# Candida albicans [13] = assay: growth inhibition of resistant C. albicans, dose response, CaCi-8 strain, fluconazole, dry powder, set 4 (AID 488950); type: functional, organism-based
# MDCK [14] = assay: MDCK cell cytotoxicity, dose response, cytotoxicity control (AID 540296); type: functional; settings: Canis lupus familiaris
# Vero = assay: Vero E6 cell cytotoxicity, dose response, cytotoxicity control (AID 540298); type: functional; settings: Chlorocebus sabaeus
# MDCK [15] = assay: antiviral activity against H1N1 influenza, dose response, cell-based, strain KY136 (AID 540257); type: functional; settings: Canis lupus familiaris
# [16] = molecular target: cAMP-dependent protein kinase catalytic subunit alpha (Homo sapiens, UniProt P17612); type: functional
# [17] = molecular target: Homeodomain-interacting protein kinase 2 (Homo sapiens, UniProt Q9H2X6); type: functional;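 also: measured within a kinome-wide kinase profiling panel, HIPK2 being one panel member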
# Sequence of Homeodomain-interacting protein kinase 2 (Q9H2X6 whole entry): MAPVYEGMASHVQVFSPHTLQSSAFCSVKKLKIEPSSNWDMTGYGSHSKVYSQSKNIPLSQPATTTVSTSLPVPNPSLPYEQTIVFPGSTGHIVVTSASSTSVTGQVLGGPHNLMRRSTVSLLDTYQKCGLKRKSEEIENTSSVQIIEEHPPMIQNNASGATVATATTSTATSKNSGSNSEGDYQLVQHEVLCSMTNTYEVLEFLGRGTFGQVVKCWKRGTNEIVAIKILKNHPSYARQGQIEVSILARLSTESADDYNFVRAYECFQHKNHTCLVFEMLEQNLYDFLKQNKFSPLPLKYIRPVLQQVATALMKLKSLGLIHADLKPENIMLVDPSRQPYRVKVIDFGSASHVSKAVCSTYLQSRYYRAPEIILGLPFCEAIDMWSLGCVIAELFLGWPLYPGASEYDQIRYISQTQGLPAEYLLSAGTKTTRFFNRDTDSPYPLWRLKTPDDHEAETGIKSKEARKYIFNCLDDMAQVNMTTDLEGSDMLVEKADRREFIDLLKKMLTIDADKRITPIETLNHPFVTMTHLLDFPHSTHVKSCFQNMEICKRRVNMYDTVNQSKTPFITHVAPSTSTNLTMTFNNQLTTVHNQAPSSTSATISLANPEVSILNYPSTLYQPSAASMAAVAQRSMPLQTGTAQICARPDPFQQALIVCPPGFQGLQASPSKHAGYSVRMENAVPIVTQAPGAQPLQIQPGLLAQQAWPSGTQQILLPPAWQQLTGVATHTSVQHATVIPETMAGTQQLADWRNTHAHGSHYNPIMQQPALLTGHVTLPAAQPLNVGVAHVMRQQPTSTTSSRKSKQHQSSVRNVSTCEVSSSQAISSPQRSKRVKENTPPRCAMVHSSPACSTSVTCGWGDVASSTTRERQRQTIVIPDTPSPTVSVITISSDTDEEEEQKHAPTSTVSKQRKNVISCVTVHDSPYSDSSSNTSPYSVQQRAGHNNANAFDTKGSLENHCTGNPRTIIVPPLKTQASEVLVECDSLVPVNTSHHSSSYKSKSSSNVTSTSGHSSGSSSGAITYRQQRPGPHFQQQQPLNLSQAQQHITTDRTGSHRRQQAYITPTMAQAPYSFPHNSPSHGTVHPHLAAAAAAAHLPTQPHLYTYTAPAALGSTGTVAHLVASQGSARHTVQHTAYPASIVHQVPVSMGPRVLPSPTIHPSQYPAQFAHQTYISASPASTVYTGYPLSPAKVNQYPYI
# [18] = molecular target: Serine/threonine-protein kinase pim-1 (Homo sapiens, UniProt P11309); type: functional
# Sequence of Serine/threonine-protein kinase pim-1 (P11309 whole entry): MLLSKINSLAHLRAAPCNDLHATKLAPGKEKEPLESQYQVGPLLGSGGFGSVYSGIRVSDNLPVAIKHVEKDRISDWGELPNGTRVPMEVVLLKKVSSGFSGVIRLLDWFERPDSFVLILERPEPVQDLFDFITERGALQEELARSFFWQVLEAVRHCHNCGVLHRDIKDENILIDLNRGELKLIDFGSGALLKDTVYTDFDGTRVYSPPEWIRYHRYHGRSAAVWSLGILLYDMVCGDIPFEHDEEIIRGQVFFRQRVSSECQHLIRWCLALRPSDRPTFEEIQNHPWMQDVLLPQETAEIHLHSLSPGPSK
# [19] = molecular target: T3, Interleukin-1 receptor-associated kinase 4 (Homo sapiens, UniProt Q9NWZ3); type: functional
# T3 sequence (Q9NWZ3 whole entry): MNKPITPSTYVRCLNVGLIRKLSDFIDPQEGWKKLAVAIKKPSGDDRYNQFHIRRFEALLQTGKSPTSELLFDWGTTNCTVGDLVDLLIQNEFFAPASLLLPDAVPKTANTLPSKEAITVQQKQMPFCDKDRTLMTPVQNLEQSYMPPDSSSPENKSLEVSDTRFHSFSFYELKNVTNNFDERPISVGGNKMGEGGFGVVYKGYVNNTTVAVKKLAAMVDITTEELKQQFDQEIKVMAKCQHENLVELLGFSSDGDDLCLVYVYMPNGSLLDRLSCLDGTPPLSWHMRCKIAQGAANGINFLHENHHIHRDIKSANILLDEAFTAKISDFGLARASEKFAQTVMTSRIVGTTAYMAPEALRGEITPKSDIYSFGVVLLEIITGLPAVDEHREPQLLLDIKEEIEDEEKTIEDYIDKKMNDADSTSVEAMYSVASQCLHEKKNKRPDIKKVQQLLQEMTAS
# [20] = molecular target: Glycogen synthase kinase-3 beta (Homo sapiens, UniProt P49841); type: functional;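 also: value comes from a broad kinome profiling panel, with GSK3B as the panel member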
# Sequence of Glycogen synthase kinase-3 beta (P49841 whole entry): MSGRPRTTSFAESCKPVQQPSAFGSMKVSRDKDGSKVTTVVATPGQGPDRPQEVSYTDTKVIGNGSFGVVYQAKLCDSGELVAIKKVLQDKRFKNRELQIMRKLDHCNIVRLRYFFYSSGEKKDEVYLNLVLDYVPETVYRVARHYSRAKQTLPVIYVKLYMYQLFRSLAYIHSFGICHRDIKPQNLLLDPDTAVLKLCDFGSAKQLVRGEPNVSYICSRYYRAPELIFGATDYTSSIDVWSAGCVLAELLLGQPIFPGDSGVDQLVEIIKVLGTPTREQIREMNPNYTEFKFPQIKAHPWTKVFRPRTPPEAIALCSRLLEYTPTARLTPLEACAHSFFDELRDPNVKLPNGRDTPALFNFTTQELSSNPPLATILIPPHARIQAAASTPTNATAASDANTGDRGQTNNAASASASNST
# [21] = molecular target: Cell division cycle 7-related protein kinase (Homo sapiens, UniProt O00311); type: functional;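 also: value obtained from a kinome-wide kinase panel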
# Sequence of Cell division cycle 7-related protein kinase (O00311 whole entry): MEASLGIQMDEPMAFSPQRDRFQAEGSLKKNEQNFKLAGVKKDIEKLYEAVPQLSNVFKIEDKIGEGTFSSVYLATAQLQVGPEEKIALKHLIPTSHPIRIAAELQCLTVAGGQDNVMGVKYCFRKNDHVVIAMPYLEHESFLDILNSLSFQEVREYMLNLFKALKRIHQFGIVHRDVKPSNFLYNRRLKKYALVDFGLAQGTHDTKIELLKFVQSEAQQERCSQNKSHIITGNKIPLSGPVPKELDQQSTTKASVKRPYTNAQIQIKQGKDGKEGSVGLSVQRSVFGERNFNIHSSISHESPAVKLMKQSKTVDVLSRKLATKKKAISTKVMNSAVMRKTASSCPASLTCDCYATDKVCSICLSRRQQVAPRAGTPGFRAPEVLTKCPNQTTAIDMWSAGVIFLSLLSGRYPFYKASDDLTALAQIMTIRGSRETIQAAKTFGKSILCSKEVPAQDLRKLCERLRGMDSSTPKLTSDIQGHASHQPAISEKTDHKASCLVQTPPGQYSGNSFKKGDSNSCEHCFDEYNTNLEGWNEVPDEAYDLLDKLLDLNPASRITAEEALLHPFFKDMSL
# [22] = molecular target: Mitogen-activated protein kinase kinase kinase kinase 4 (Homo sapiens, UniProt O95819); type: functional
# [23] = molecular target: MAP kinase-interacting serine/threonine-protein kinase 2 (Homo sapiens, UniProt Q9HBH9); type: functional
# [24] = molecular target: Dual specificity protein kinase CLK4 (Homo sapiens, UniProt Q9HAZ1); type: functional
# Sequence of Dual specificity protein kinase CLK4 (Q9HAZ1 whole entry): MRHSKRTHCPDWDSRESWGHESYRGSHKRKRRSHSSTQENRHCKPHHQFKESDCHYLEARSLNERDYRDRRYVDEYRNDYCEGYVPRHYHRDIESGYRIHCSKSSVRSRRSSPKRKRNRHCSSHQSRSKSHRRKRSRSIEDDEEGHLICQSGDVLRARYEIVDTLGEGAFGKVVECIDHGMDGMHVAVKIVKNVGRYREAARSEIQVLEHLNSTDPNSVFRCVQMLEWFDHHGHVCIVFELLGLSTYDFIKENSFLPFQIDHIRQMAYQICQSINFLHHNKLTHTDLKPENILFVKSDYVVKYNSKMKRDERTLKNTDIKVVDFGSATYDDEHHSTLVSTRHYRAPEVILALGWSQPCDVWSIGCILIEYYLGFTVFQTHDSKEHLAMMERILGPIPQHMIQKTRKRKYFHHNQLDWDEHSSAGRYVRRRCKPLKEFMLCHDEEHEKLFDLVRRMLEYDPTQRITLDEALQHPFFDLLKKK
# [25] = molecular target: T1, Cyclin-dependent kinase 2; type: functional
# BJ [26] = assay: cytotoxicity toward BJ-TERT fibroblasts, dose response, cell-based, RAS-independent, luminescence (AID 1933); type: functional; settings: Homo sapiens
# [27] = molecular target: T4, Orexin/Hypocretin receptor type 1 (Homo sapiens, UniProt O43613); assay: Fluorescence-based cell-based high throughput dose response assay for antagonists of the orexin 1 receptor (OX1R; HCRTR1). [Related pubchem assays (depositor defined):AID434989, AID435008, AID463079, AID485270, AID492963, AID492964, AID492965, AID493232, AID504717, AID504718]; type: functional
# T4 sequence (O43613 whole entry): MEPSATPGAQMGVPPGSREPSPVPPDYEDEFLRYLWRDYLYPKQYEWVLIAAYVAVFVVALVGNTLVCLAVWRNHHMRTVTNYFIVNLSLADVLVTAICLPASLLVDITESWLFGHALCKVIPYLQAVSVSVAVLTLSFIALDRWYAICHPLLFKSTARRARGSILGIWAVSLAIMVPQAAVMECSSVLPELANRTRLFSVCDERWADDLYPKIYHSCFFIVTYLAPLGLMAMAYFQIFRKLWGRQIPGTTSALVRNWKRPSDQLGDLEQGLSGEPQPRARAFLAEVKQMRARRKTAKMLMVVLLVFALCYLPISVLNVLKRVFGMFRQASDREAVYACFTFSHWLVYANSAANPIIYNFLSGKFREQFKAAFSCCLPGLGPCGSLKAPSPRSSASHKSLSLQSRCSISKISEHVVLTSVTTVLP
# [28] = Counterscreen for antagonists of the orexin 1 receptor (OX1R; HCRTR1): Fluorescence-based cell-based high throughput dose response assay to identify antagonists of the parental CHO cell line. [Related pubchem assays (depositor defined):AID434989, AID435008, AID463079, AID485270, AID492963, AID492964, AID492965, AID493232, AID504699, AID504701]; type: functional
# BJ [29] = assay: cells; type: functional, cell-based; settings: Homo sapiens
# [30] = Vero cell cytotoxicity, dose response, cytotoxicity control for Vif-APOBEC3G degradation inhibitor project, Vero cells (AID 1117358); type: functional; settings: Human immunodeficiency virus 1, Vero
# [31] = molecular target: T4, Orexin/Hypocretin receptor type 1; assay: Homogeneous Time Resolved Fluorescence (HTRF)-based cell-based high throughput dose response assay for antagonists of the orexin 1 receptor (OX1R; HCRTR1). [Related pubchem assays (depositor defined):AID434989, AID435008, AID463079, AID485270, AID492963, AID492964, AID492965, AID493232, AID504717, AID504718]; type: functional
# Orexin receptor type 2 [32] = molecular target: T5, Orexin receptor type 2 (Homo sapiens, UniProt O43614); assay: Counterscreen assay for antagonists of the orexin 1 receptor (OX1R; HCRTR1): Homogeneous Time Resolved Fluorescence (HTRF)-based cell-based dose response assay for antagonists of the orexin 2 receptor (OX2R; HCRTR2), run by assay provider.; type: functional
# T5 sequence (O43614 whole entry): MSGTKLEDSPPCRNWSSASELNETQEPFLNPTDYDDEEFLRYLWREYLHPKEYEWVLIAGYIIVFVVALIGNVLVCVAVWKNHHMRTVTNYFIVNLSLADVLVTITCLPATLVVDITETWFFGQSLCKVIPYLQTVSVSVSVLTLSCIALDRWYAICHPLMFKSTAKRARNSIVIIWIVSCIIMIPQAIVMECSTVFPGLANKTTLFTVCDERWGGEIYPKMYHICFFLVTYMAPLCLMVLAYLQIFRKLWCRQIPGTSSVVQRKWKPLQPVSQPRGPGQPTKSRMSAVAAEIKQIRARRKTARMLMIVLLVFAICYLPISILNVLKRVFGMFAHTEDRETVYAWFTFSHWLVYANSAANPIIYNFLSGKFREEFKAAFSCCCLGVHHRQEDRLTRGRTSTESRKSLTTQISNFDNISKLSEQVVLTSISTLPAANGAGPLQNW
# Orexin receptor type 2 [33] = molecular target: T5, Orexin receptor type 2; assay: Counterscreen assay for antagonists of the orexin 1 receptor (OX1R; HCRTR1): Fluorescence-based cell-based dose response assay for antagonists of the orexin 2 receptor (OX2R; HCRTR2), run by assay provider.; type: functional
# [34] = cytotoxicity toward DRD oncogenic fibroblasts, dose response, cell-based, non-viral oncogenic, luminescence (AID 1934); type: functional; settings: Homo sapiens
# BJ [35] = assay: cytotoxicity toward BJ-TERT-LT-ST fibroblasts, dose response, cell-based, RAS-independent, luminescence (AID 1935); type: functional; settings: Homo sapiens;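 also: BJ fibroblasts immortalized with TERT plus LT and ST oncogenes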
# CHO-K1 = assay: Counterscreen for antagonists of the orexin 1 receptor (OX1R; HCRTR1): Homogeneous time resolved fluorescence (HTRF)-based cell-based dose response assay to identify antagonists of the parental CHO-K1 cell line. [Related pubchem assays (depositor defined):AID434989, AID435008, AID463079, AID485270, AID492963, AID492964, AID492965, AID493232, AID504699, AID504701]; type: functional; settings: Cricetulus griseus;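 also: potency for inhibition of ATP-stimulated IP1 production as antagonists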
structure (smiles),measurement,setting,value
c1cncc(CNc2nccc(-c3ccc4c(c3)OCO4)n2)c1,AC50,[1],14.3 µM (active)
same,AC50,[2],0.00791 µM (active)
O=C(/C=C\c1cccs1)N1CCN(Cc2ccc3c(c2)OCO3)CC1,CC50,[3],> 100 µM (active)
same,CC50,[4],> 50 µM (active)
O=C1N(Cc2cccc(Cl)c2)C[C@@H]2C[C@@H](c3cccn3-c3ccccn3)N3CCC[C@@]123,EC50,[5],8.22 µM (active)
C/N=C1/SC(=Cc2cc(C)n(Cc3ccc(F)cc3F)c2C)C(=O)N1C,EC50,[6],13.1 µM (inactive)
same,EC50,[7],0.287 µM (active)
same,EC50,[8],> 25 µM (inactive)
same,EC50,[9],0.0371 µM (active)
Cc1cc(C)cc(NC(=O)NC2=NN(c3ccccc3)C(=O)C2)c1,Ki,[10],3.16 µM (active)
same,Ki,[11],3.98 µM (active)
O=C(C1CC1)N1CCN(c2ccnc3cc(Cl)ccc23)CC1,AC50,Candida albicans [12],3.25 µM (active)
same,AC50,NIH3T3,1.7 µM (active)
same,AC50,Candida albicans [13],12.4 µM (active)
CC1CCN(c2nc(NCc3ccco3)nc(N)c2[N+](=O)[O-])CC1,CC50,MDCK [14],11.4 µM (active)
same,CC50,Vero,> 40 µM (active)
same,IC50,MDCK [15],2.57 µM (active)
O=C1Nc2ccccc2Nc2cc(-c3ccncc3Cl)ccc21,Ki,[16],0.794 µM (active)
same,Ki,[17],1.26 µM (active)
same,Ki,[18],> 10 µM (inactive)
same,Ki,[19],1 µM (active)
same,Ki,[20],0.251 µM (active)
same,Ki,[21],0.02 µM (active)
same,Ki,[22],0.794 µM (active)
same,Ki,[23],0.2 µM (active)
same,Ki,[24],0.0631 µM (active)
CCOC(=O)c1c[nH]n2c(=O)cc(-c3ccncc3)nc12,Ki,[16],> 7.94 µM (inactive)
same,Ki,[17],0.0501 µM (active)
same,Ki,[25],> 7.94 µM (inactive)
same,Ki,[18],3.16 µM (active)
same,Ki,[19],> 10 µM (inactive)
same,Ki,[20],0.316 µM (active)
same,Ki,[21],0.00501 µM (active)
same,Ki,[22],> 10 µM (inactive)
same,Ki,[24],0.0251 µM (active)
Cc1nn(-c2ccccc2)c(C)c1/C=N/NC(=O)c1cc(-c2ccccc2)[nH]n1,EC50,BJ [26],0.308 µM (active)
same,IC50,[27],3.67 µM (active)
same,IC50,[28],> 49.8 µM (inactive)
same,EC50,BJ [29],37.5 µM (inconclusive)
same,CC50,[30],8.77 µM (active)
same,IC50,[31],1.75 µM (active)
same,IC50,Orexin receptor type 2 [32],18.8 µM (inactive)
same,IC50,Orexin receptor type 2 [33],20.6 µM (inactive)
same,EC50,[34],0.659 µM (inconclusive)
same,EC50,BJ [35],> 150 µM (inconclusive)
same,IC50,CHO-K1,> 66.2 µM (inactive)
